Data: article PMC9861386, “N-Heterocyclic Carbene-Iridium Complexes as Photosensitizers for In Vitro Photodynamic Therapy to Trigger Non-Apoptotic Cell Death in Cancer Cells” (Molecules, 2023)
Where two headings read alike, the source gives them in different places.

How the values were obtained:
T24 = assay: MTT cytotoxicity, 48 h; type: cell-based, human
Experimental: (§1) The in vitro cytotoxicity of iridium(III) complexes 4a–4g was first evaluated against cancer cell lines PC-3 (human prostate) and T24 (human bladder) and the non-cancerous NIH-3T3 cell line (murine fibroblasts) using colorimetric MTT tests after 48 h of treatment. The dimeric iridium precursor [IrCl(ppy)2]2 was used as reference and the results are summarized in Table S1 (Supplementary Materials) in the supporting information file. […] The complexes were also evaluated for their cytotoxicity towards healthy NIH-3T3 cells, giving access to the selectivity index (SI). […] No linear correlation between lipophilicity and anti-cancer activity was found for the iridium(III) complexes 4a–4g. For the following biological studies, we focused on the C1 series.
(§2) Table S1. Cytotoxic activity of iridium(III) NHC complexes 4a−4g expressed as GI50 (μM) values towards selected cancer and normal cell lines as determined by MTT assay (48 h).a Complex PC-3 T24 NIH3T3 SI (PC-3) SI (T24) […]
(§3) a GI50 values correspond to the concentration of complexes causing 50 % inhibition of cell growth.
(§4) Data were obtained from three independent experiments.
(§5) The cytotoxic effects of the NHC precursors, the imidazolium salts, which represents the potential hydrolysis and/or degradation products of the complexes, have been published before [SI-1, SI-2]. […]

PC-3 = assay: MTT cytotoxicity, 48 h; type: cell-based, human
Experimental: as §1, §2, §3, §4, §5

A549 lung cancer cells = assay: MTT cell viability, 72 h, dark or 458 nm irradiation; type: cell-based, human; conditions: for GI50: 72 h, MTT
Experimental: (§6) For all biology experiments, the compounds were solubilized in DMSO to reach a final fixed concentration equal to 0.1% v/v to avoid cytotoxicity caused by DMSO [89]. The results are normalized to controls (0.1% v/v DMSO). Depending on the cell type, approximatively 1000 to 10,000 cells/cm^2 were seeded in 48-well plates for MTT, ATP and GSH assays and 60 mm Petri dishes for Western blots. Cells were allowed to attach overnight and then incubated for 4 h with the different complexes (in the dark), then irradiated for 10 min, followed by an incubation in the dark up to 72 h.
(§7) Irradiation was conducted using an in-house device: a series of blue light LEDs selected according to the absorption spectra of the compounds at a 458 nm wavelength with an emitted power of 9.6 watts. The absorbed energy, or irradiance, was measured at 458 nm with a Thorlabs Optical Power Meter PM100A at 5 and 10 cm distance between the cell layer and the light source and expressed as mW/cm^2.
(§8) A tetrazolium-based MTT reagent (3-(4,5-dimethylthiazol-2-yl)-2,5-diphenyltetrazolium bromide) was used to determine cell viability, as previously described. After 72 h of treatment at 37 °C and 5% CO2, cells were incubated with 25 μL MTT solution (5 mg/mL; Sigma-Aldrich) for 4 h. After solubilization with 500 μL of lysis buffer (DMSO), formazan was quantified by spectrophotometry with a microplate reader at 570 nm absorbance (ClarioSTAR, BMG LabTech, Champigny-sur-Marne, France). GI50 values corresponding to the concentration that caused 50% inhibition of cell proliferation were calculated from dose–response curves obtained by nonlinear regression analysis. All results were calculated from data obtained in at least three independent experiments.

T24 bladder cancer cells = assay: as above; type: cell-based, human; conditions: for GI50: 72 h, MTT
Experimental: as §6, §7, §8

[1] = system: MCF7/FasR breast cancer cells; assay: as above; type: cell-based, human; conditions: for GI50: 72 h, MTT
Experimental: as §6, §7, §8

HeLa cervix cancer cells = assay: as above; type: cell-based, human; conditions: for GI50: 72 h, MTT
Experimental: as §6, §7, §8

[2] = system: PC-3 prostate cancer cells; assay: as above; type: cell-based, human; conditions: for GI50: 72 h, MTT
Experimental: as §6, §7, §8

MC3T3 osteoblasts = assay: as above; type: cell-based, murine
Experimental: as §6, §7, §8

NIH-3T3 fibroblasts = assay: as above; type: cell-based, murine; conditions: for GI50: 72 h, MTT
Experimental: as §6, §7, §8

NIH3T3 = assay: MTT cytotoxicity, 48 h; type: cell-based, murine
Experimental: as §1, §2, §3, §4, §5

[3] = GI50 non-irradiated / GI50 irradiated

`CC(C)[n+]1ccn2[c]1[Ir-3]13([c]4ccccc4-c4cccc[n+]41)([c]1ccccc1-c1cccc[n+]13)[c]1n(cc[n+]1C(C)C)C2.F[P-](F)(F)(F)(F)F` [Complex 4a] was tested, and the GI50 (T24; MTT) was 310 nM, the “SI (T24)” value (T24; NIH3T3 vs T24) was 10.6 and the GI50 (PC-3; MTT) was 480 nM. The “SI (PC-3)” value (PC-3; NIH3T3 vs PC-3) was 6.9, the GI50 (A549 lung cancer cells; 458 nm irradiation 10 min, read-out: GI50 A549 Blue) was 107 nM and the “PI A549” value (A549 lung cancer cells; [3]) was 3.3. For the same compound, the “SI vs MC3T3, A549 Blue” value (A549 lung cancer cells; blue light, GI50 MC3T3 / GI50 A549) was 16.3, the “SI vs NIH, A549 Blue” value (A549 lung cancer cells; blue light, GI50 NIH-3T3 / GI50 A549) was 26.1 and the GI50 (A549 lung cancer cells; dark, read-out: GI50 A549 Dark) was 355 nM. For the same compound, the “SI vs MC3T3, A549 Dark” value (A549 lung cancer cells; dark, GI50 MC3T3 / GI50 A549) was 6.9, the “SI vs NIH, A549 Dark” value (A549 lung cancer cells; dark, GI50 NIH-3T3 / GI50 A549) was 10.3 and the GI50 (T24 bladder cancer cells; 458 nm irradiation 10 min, read-out: GI50 T24 Blue) was 82 nM. For the same compound, the “PI T24” value (T24 bladder cancer cells; [3]) was 3.5, the “SI vs MC3T3, T24 Blue” value (T24 bladder cancer cells; blue light, GI50 MC3T3 / GI50 T24) was 21.2 and the “SI vs NIH, T24 Blue” value (T24 bladder cancer cells; blue light, GI50 NIH-3T3 / GI50 T24) was 34.0. The GI50 (T24 bladder cancer cells; dark, read-out: GI50 T24 Dark) was 288 nM, the “SI vs MC3T3, T24 Dark” value (T24 bladder cancer cells; dark, GI50 MC3T3 / GI50 T24) was 8.5 and the “SI vs NIH, T24 Dark” value (T24 bladder cancer cells; dark, GI50 NIH-3T3 / GI50 T24) was 12.7. For the same compound, the GI50 ([1]; 458 nm irradiation 10 min, read-out: GI50 MCF7 Blue) was 50 nM, the “PI MCF7” value [1, 3] was 4.3 and the “SI vs MC3T3, MCF7 Blue” value ([1]; blue light, GI50 MC3T3 / GI50 MCF7) was 34.8. For the same compound, the “SI vs NIH, MCF7 Blue” value ([1]; blue light, GI50 NIH-3T3 / GI50 MCF7) was 55.8, the GI50 ([1]; dark, read-out: GI50 MCF7 Dark) was 213 nM and the “SI vs MC3T3, MCF7 Dark” value ([1]; dark, GI50 MC3T3 / GI50 MCF7) was 11.5. For the same compound, the “SI vs NIH, MCF7 Dark” value ([1]; dark, GI50 NIH-3T3 / GI50 MCF7) was 17.2, the GI50 (HeLa cervix cancer cells; 458 nm irradiation 10 min, read-out: GI50 HeLa Blue) was 525 nM and the “PI HeLa” value (HeLa cervix cancer cells; [3]) was 2.5. The “SI vs MC3T3, HeLa Blue” value (HeLa cervix cancer cells; blue light, GI50 MC3T3 / GI50 HeLa) was 3.3, the “SI vs NIH, HeLa Blue” value (HeLa cervix cancer cells; blue light, GI50 NIH-3T3 / GI50 HeLa) was 5.3 and the GI50 (HeLa cervix cancer cells; dark, read-out: GI50 HeLa Dark) was 1290 nM. The “SI vs MC3T3, HeLa Dark” value (HeLa cervix cancer cells; dark, GI50 MC3T3 / GI50 HeLa) was 1.9, the “SI vs NIH, HeLa Dark” value (HeLa cervix cancer cells; dark, GI50 NIH-3T3 / GI50 HeLa) was 2.8 and the GI50 ([2]; 458 nm irradiation 10 min, read-out: GI50 PC-3 Blue) was 57 nM. For the same compound, the “PI PC-3” value [2, 3] was 4.1, the “SI vs MC3T3, PC-3 Blue” value ([2]; blue light, GI50 MC3T3 / GI50 PC-3) was 30.5 and the “SI vs NIH, PC-3 Blue” value ([2]; blue light, GI50 NIH-3T3 / GI50 PC-3) was 48.9. The GI50 ([2]; dark, read-out: GI50 PC-3 Dark) was 233 nM, the “SI vs MC3T3, PC-3 Dark” value ([2]; dark, GI50 MC3T3 / GI50 PC-3) was 10.6 and the “SI vs NIH, PC-3 Dark” value ([2]; dark, GI50 NIH-3T3 / GI50 PC-3) was 15.8. The GI50 (MC3T3 osteoblasts; 458 nm irradiation 10 min, read-out: GI50 MC3T3 Blue) was 1740 nM, the GI50 (MC3T3 osteoblasts; dark, read-out: GI50 MC3T3 Dark) was 2460 nM and the GI50 (NIH-3T3 fibroblasts; 458 nm irradiation 10 min, read-out: GI50 NIH-3T3 Blue) was 2790 nM. For the same compound, the “PI NIH-3T3” value (NIH-3T3 fibroblasts; [3]) was 1.3, the GI50 (NIH-3T3 fibroblasts; dark, read-out: GI50 NIH-3T3 Dark) was 3670 nM and the GI50 (NIH3T3) was 3300 nM.
